The test system of the experiment is nude mice, LX-1 lung xenograft intrarenal, tumor weight T/C. Put plainly: NCI In Vivo Anticancer Drug Screen. Data for tumor model Human Lung LX-1 Xenograft (intrarenal inoculation) in NU/NU Swiss (nude) mice. The conditions noted are these: endpoint: mean tumor weight change, higher = larger tumour. The essentials: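 Compound-treated mice carrying transplanted tumors were compared with vehicle-treated controls. Tumor size was the measured end point, and the value is the treated-group measurement divided by the control-group measurement (T/C).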
(A xenograft is tissue or cells of one species grown in another, often human tumour cells in immunodeficient mice.)

The mark [1] stands for this setting: dose: 6.25 mg/kg/injection, schedule: Q01DX010 (sc), vehicle: saline with Tween-80.
[2] abbreviates: dose: 12.5 mg/kg/injection, schedule: Q01DX010 (sc), vehicle: saline with Tween-80.
Setting [3] is: dose: 25.0 mg/kg/injection, schedule: Q01DX010 (sc), vehicle: saline with Tween-80.
[4] abbreviates: dose: 100.0 mg/kg/injection, schedule: Q04DX003 (sc), vehicle: saline with Tween-80.
[5] abbreviates: dose: 800.0 mg/kg/injection, schedule: Q04DX003 (sc), vehicle: saline with Tween-80.
Where [6] appears, read: dose: 12.5 mg/kg/injection, schedule: Q01DX010 (sc), vehicle: saline.
[7] abbreviates: dose: 50.0 mg/kg/injection, schedule: Q01DX010 (sc), vehicle: saline.
The mark [8] stands for this setting: dose: 100.0 mg/kg/injection, schedule: Q01DX010 (sc), vehicle: saline.
The mark [9] stands for this setting: dose: 200.0 mg/kg/injection, schedule: Q04DX003 (sc), vehicle: saline with Tween-80.

The results in this text go back to PubChem BioAssay AID264 (DTP/NCI, 2004).

Several values for one entry are separate records, joined by “and”; a condition that tells them apart may be missing. Equal values may be shown once. Records with an inconclusive call do not appear.

As to `O=C1C(O)=C(c2ccccc2)C(=O)C(O)=C1c1ccccc1`, the T/C by setting is: (dose: 75.0 mg/kg/injection, schedule: Q04DX003 (sc), vehicle: saline) 80 % of control; (dose: 150.0 mg/kg/injection, schedule: Q04DX003 (sc), vehicle: saline) 71 % of control.

In the case of `C=CC(=O)N1CN(C(=O)C=C)CN(C(=O)C=C)C1`, the T/C was 92 % of control under setting [1], 110 % of control under setting [2] and 67 % of control under setting [3].

`CN(C)N=Nc1cccc(C(N)=O)c1`: the T/C runs as follows: (dose: 25.0 mg/kg/injection, schedule: Q04DX003 (sc), vehicle: Klucel (hydroxypropylcellulose) (HPC)) 72 % of control; (dose: 50.0 mg/kg/injection, schedule: Q04DX003 (sc), vehicle: Klucel (hydroxypropylcellulose) (HPC)) 47 % of control; (dose: 100.0 mg/kg/injection, schedule: Q04DX003 (sc), vehicle: Klucel (hydroxypropylcellulose) (HPC)) 7 % of control and 15 % of control; (dose: 200.0 mg/kg/injection, schedule: Q04DX003 (sc), vehicle: Klucel (hydroxypropylcellulose) (HPC)) 4 % of control and 29 % of control; (dose: 400.0 mg/kg/injection, schedule: Q04DX003 (sc), vehicle: Klucel (hydroxypropylcellulose) (HPC)) -61 % of control.

Turning to `CCC1=C[C@H]2CN(CCc3c([nH]c4ccccc34)[C@@](C(=O)OC)(c3cc4c(cc3OC)N(C)[C@H]3[C@@](O)(C(=O)OC)[C@H](OC(C)=O)[C@]5(CC)C=CCN6CC[C@]43[C@@H]65)C2)C1`, the T/C is, setting by setting: (dose: 6.0 mg/kg/injection, schedule: Q04DX003 (sc), vehicle: water) 106 % of control; (dose: 12.0 mg/kg/injection, schedule: Q04DX003 (sc), vehicle: water) 89 % of control.

For the compound `CNNCc1ccc(C(=O)NC(C)C)cc1`, the T/C (dose: 166.66 mg/kg/injection, schedule: Q04DX003 (ip), vehicle: saline) was -73 % of control; the T/C (dose: 333.33 mg/kg/injection, schedule: Q04DX003 (ip), vehicle: saline) is -64 % of control; the T/C (dose: 666.65 mg/kg/injection, schedule: Q04DX003 (ip), vehicle: saline) is -73 % of control.

Turning to `C=C1C(=O)OC2CC(C)C3C4OC4C(O)C3(C)C(O)C12` (stereo not drawn), the T/C is 97 % of control under setting [4] and 75 % of control under setting [5].

Regarding `O=C(O)c1cc(Cc2ccc(O)c(C(=O)O)c2)ccc1O` (tested in a mixture with another compound), the T/C by setting is: (dose: 300.0 mg/kg/injection, schedule: Q04DX003 (sc), vehicle: Klucel (hydroxypropylcellulose) (HPC)) 89 % of control; (dose: 600.0 mg/kg/injection, schedule: Q04DX003 (sc), vehicle: Klucel (hydroxypropylcellulose) (HPC)) 64 % of control; (dose: 1200.0 mg/kg/injection, schedule: Q04DX003 (sc), vehicle: Klucel (hydroxypropylcellulose) (HPC)) 91 % of control; (dose: 2400.0 mg/kg/injection, schedule: Q04DX003 (sc), vehicle: Klucel (hydroxypropylcellulose) (HPC)) 68 % of control.

For the compound `CN(C)N=Nc1ccccc1`, the T/C is 12 % of control (dose: 12.5 mg/kg/injection, schedule: Q01DX010 (sc), vehicle: Klucel (hydroxypropylcellulose) (HPC)) and -98 % of control (dose: 50.0 mg/kg/injection, schedule: Q01DX010 (sc), vehicle: Klucel (hydroxypropylcellulose) (HPC)).

For the compound `N=[N+]=CC(=O)CCC(NC(=O)C(CCC(=O)C=[N+]=N)NC(=O)CCC(N)C(=O)O)C(=O)O` (stereo not drawn), the T/C was 119 % of control (dose: 1.6 mg/kg/injection, schedule: Q04DX003 (sc), vehicle: water); 86 % of control (dose: 3.2 mg/kg/injection, schedule: Q04DX003 (sc), vehicle: water); 119 % of control (dose: 6.4 mg/kg/injection, schedule: Q04DX003 (sc), vehicle: water); 91 % of control (dose: 12.8 mg/kg/injection, schedule: Q04DX003 (sc), vehicle: water).

In the case of `N=C(N)CCCCCCCCC(=N)N`, the T/C runs as follows: (dose: 4.69 mg/kg/injection, schedule: Q04DX003 (sc), vehicle: saline) 91 % of control; (dose: 9.38 mg/kg/injection, schedule: Q04DX003 (sc), vehicle: saline) 92 % of control; (dose: 18.75 mg/kg/injection, schedule: Q04DX003 (sc), vehicle: saline) 94 % of control.

Turning to `COc1cc(C)c2c(c1C=O)Oc1c(c(C)c(O)c3c1C(O)OC3=O)OC2=O` (stereo not drawn), the T/C is 95 % of control under setting [6]; 103 % of control (dose: 25.0 mg/kg/injection, schedule: Q01DX010 (sc), vehicle: saline); 59 % of control under setting [7]; 32 % of control under setting [8].

Consider `CC(=O)Oc1ccccc1O`, for which the T/C is, setting by setting: (dose: 150.0 mg/kg/injection, schedule: Q04DX003 (sc), vehicle: saline + Tween-80 + alcohol) 105 % of control; (dose: 300.0 mg/kg/injection, schedule: Q04DX003 (sc), vehicle: saline + Tween-80 + alcohol) 101 % of control; (dose: 600.0 mg/kg/injection, schedule: Q04DX003 (sc), vehicle: saline + Tween-80 + alcohol) 89 % of control; (dose: 1200.0 mg/kg/injection, schedule: Q04DX003 (sc), vehicle: saline + Tween-80 + alcohol) 82 % of control.

`COC1CC(CC2CCC(C)C(C(C)C(=O)O)O2)OC2(OC(C)(C3CCC(C)(C4OC(C5OC(O)(CO)C(C)CC5C)CC4C)O3)CC2C)C1C` (stereo not drawn): the T/C (dose: 3.75 mg/kg/injection, schedule: Q04DX003 (sc), vehicle: Klucel (hydroxypropylcellulose) (HPC)) was 110 % of control; the T/C (dose: 7.5 mg/kg/injection, schedule: Q04DX003 (sc), vehicle: Klucel (hydroxypropylcellulose) (HPC)) is 102 % of control; the T/C (dose: 30.0 mg/kg/injection, schedule: Q04DX003 (sc), vehicle: Klucel (hydroxypropylcellulose) (HPC)) is 108 % of control.

As for `CCN(CC)CCOC(=O)Cc1cccc2c(=O)cc(-c3ccccc3)oc12`, the T/C was 112 % of control under setting [4] and 44 % of control under setting [9].

For `O=C(NP(=O)(N1CC1)N1CC1)c1cc(I)ccc1I`, the T/C under setting [7] is 73 % of control and the T/C under setting [8] was 54 % of control.

As for `CN1N=C(N)c2cn(C3OC(COP(=O)(O)O)C(O)C3O)c3ncnc1c23` (stereo not drawn), the T/C was 107 % of control (dose: 12.5 mg/kg/injection, schedule: Q01DX010 (sc), vehicle: water); 109 % of control (dose: 25.0 mg/kg/injection, schedule: Q01DX010 (sc), vehicle: water); 81 % of control (dose: 50.0 mg/kg/injection, schedule: Q01DX010 (sc), vehicle: water).

Turning to `CC1(CO)C(O)CCC2(C)C1CCC1CC3CC12CCC3(O)CO` (stereo not drawn), the T/C is, setting by setting: under setting [1], 181 % of control; under setting [2], 58 % of control; under setting [3], 78 % of control; (dose: 600.0 mg/kg/injection, schedule: Q01DX010 (sc), vehicle: saline with Tween-80) 67 % of control.

Turning to `BrC1c2cccc3cccc(c23)C1Br` (stereo not drawn), the T/C is, setting by setting: (dose: 600.0 mg/kg/injection, schedule: Q04DX003 (sc), vehicle: saline with Tween-80) 155 % of control; (dose: 1200.0 mg/kg/injection, schedule: Q04DX003 (sc), vehicle: saline with Tween-80) 96 % of control.

With `OCCO`, the T/C reads like this: (dose: 8.0 % in 0.5 ml injection vol, schedule: Q04DX003 (sc), vehicle: water) 121 % of control; (dose: 16.0 % in 0.5 ml injection vol, schedule: Q04DX003 (sc), vehicle: water) 108 % of control.

On to `CC1(c2ccc(Cl)cc2)OC(=O)C(=Cc2ccc([N+](=O)[O-])s2)C(=O)O1` (stereo not drawn), for which the T/C was 111 % of control under setting [9]; 80 % of control under setting [5]; 118 % of control (dose: 1600.0 mg/kg/injection, schedule: Q04DX003 (sc), vehicle: saline with Tween-80).

As to `O=C(O[Si](Cc1ccccc1)(Cc1ccccc1)Cc1ccccc1)N(CCCl)CCCl`, the T/C runs as follows: under setting [4], 53 % of control; under setting [9], 120 % of control.

As to `CN1CCN(CCCN2c3ccccc3Sc3ccc(C(F)(F)F)cc32)CC1`, the T/C reads like this: (dose: 6.25 mg/kg/injection, schedule: Q01DX010 (sc), vehicle: saline) 97 % of control; under setting [6], 124 % of control; under setting [8], 63 % of control and 66 % of control and 87 % of control; (dose: 400.0 mg/kg/injection, schedule: Q01DX010 (sc), vehicle: saline) 31 % of control.

For `CN(C)C1C(=O)C(C(=O)NP(=O)(NCCCO)N(CCCl)CCCl)=C(O)C2(O)C(=O)C3=C(O)c4c(O)cccc4C(C)(O)C3CC12` (stereo not drawn), the T/C (dose: 300.0 mg/kg/injection, schedule: Q04DX003 (sc), vehicle: saline with Tween-80) was 47 % of control.

Consider `CNc1n[n+](-c2ccccc2)no1`, for which the T/C is 98 % of control (dose: 37.5 mg/kg/injection, schedule: Q04DX003 (sc), vehicle: water) and 92 % of control (dose: 75.0 mg/kg/injection, schedule: Q04DX003 (sc), vehicle: water).
